According to paper PMC7955127, “Preclinical small molecule WEHI-7326 overcomes drug resistance and elicits response in patient-derived xenograft models of human treatment-refractory tumors” (Cell Death & Disease, 2021):

Experiments:
SW480 = assay: Cell growth inhibition assay, SW480; assay type: cell-based, human
Protocol: (§1) Cells were plated at a density of between 500 to 5000 cells per well for adherent cell lines depending on doubling time, and 15,000 cells per well for lymphoblastic leukemia cell lines, in a 96-well plate in 200 μl of growth media. Plates were incubated overnight at 37 °C before adding the inhibitors. Inhibitors were serially diluted from the stock solutions in complete medium and added to the cells. Incubation in the presence of inhibitors was continued for […]. Cell viability was assessed by the AlamarBlue (Invitrogen) or CellTiterBlue/Glo (Promega) method according to manufacturer’s instructions. The curve fits and IC50 values were generated in PRISM (GraphPad, San Diego, CA).
a Chemical structures of the triazine-based anti-mitotics used in this study. b Dose-dependent antiproliferative activity of key derivatives and comparison with commonly used anti-mitotics in SW480 cell line: Data shown is cell viability (as measured by CellTiterGlo) after 72 h relative to untreated control cells. Shown is mean of 3 independent experiments performed in duplicate +/- SEM. c Dose-dependent cell cycle analysis of key derivatives of WEHI-7326 development in SW480 cell line. Data are presented as percentage of cells in G2/M or subG0 after 24 h incubation with titration of inhibitors as assessed by PI staining and flow cytometry. Mean average of 3 experiments +/- SEM. d Comparison of IC50 and EC50 values of triazine compounds and anti-mitotic drugs in SW480 cell line: inhibition of cellular proliferation and cell cycle arrest in G2/M. IC50 and EC50 values are the mean of 3 independent experiments run in duplicates +/- SEM (n.d. = not determined). e HepG2 cytotoxic assay: cell viability assay after 48 h, normalised to 0.4% DMSO (100% viability) and 2 μM bortezomib (0% viability). The data is the mean average of 2 experiments +/- SD.

[1] = tested on: LIM2537 (colon carcinoma) xenograft; assay: LIM2537 tumor xenograft in nude mice; assay type: in vivo, BALB/c nude mice; conditions: i.p. three times weekly
Protocol: Tumor cell lines LIM2537, U87MGΔ2–7EGFR or H1437 were collected by trypsinization, counted and injected at 5 × 10^6 cells/ site subcutaneously on both flanks of BALB/c nude mice. Treatment with vehicle control or WEHI-7326 at given dose was initiated after 5 days. Drug or vehicle (100 μl) was injected intraperitoneally three times weekly. Control group and treatment group consisted of 8 mice each. Tumors were measured twice weekly with calipers. Tumor volumes were estimated using the modified ellipsoid formula V = 1/2 (length × width^2). The experiments were terminated when tumors in the control group started ulcerating or exceeded 17 mm in length, in line with the LICR/DoS Animal Ethics Committee guidelines (11/05 A).

CEM dEpoB300 = assay: Cell growth inhibition assay, CEM dEpoB300; assay type: cell-based; conditions: Homo sapiens; CEM dEpoB300, leukemia (taxane resistant, β-tubulin mutation); 72 h, Alamar Blue; mean of 3 ± SEM; read-out: IC50 (inhibition of cellular proliferation)
Protocol: as §1
Parental human lymphoblastic leukemia cells (CEM) and their drug resistant derivatives (dEpoB30 and dEpoB300) were cultured in the presence of increasing amounts of WEHI-7326, paclitaxel or epothilone B. Cell survival was determined as described in Experimental Procedures. Shown are mean of 3 experiments +/- SEM. Dose response curves were fitted in PRISM using non-linear regression (4 parameter logistic) to calculate IC50 values.

134183 HGSOC PDX = assay: HGSOC PDX model 134183; assay type: in vivo, NSG mice; conditions: 134183 platinum-sensitive PDX; 20 mg/kg i.v. biweekly, 6 weeks
Protocol: (§2) Two to three mm ovarian tumor fragments were subcutaneously engrafted in the left flank of NSG mice and monitored by physical palpation for tumor growth and engraftment. Engrafted tumors were measured twice a week using digital Vernier calipers and maximum tumor diameter + perpendicular tumor length were digitally recorded into the Study Director software (v 3.0/4.0 StudyLog). Tumor volume was calculated automatically (tumor volume (mm^3) = 0.5236 x [larger diameter (mm) x smaller diameter (mm)^2]). Mice were randomized to treatment once their tumor volume reach 180–300 mm^3 and tumor measurements were performed twice a week up to 120 days or when the tumor volume reaches 700 mm^3.
(§3) Time to progressive disease (PD): Defined as the time (in days) from beginning of treatment to an increase in average tumor volume of >20% from the nadir (taken as the smallest average tumor volume recorded since treatment started or 200 mm^3 if nadir was <200 mm^3 as lesions smaller than this are difficult to measure with accuracy). Median time to harvest (TTH): Defined as the time (in days) from the beginning of treatment to day of harvest at 700 mm^3 and the median TTH was calculated and plotted using Kaplan-Meier curves. Based on ref. [27]. […]

34931 HGSOC PDX = assay: HGSOC post-chemo PDX model 34931; assay type: in vivo, NSG mice; conditions: 34931 post-taxane, cisplatin-refractory PDX; 20 mg/kg i.v. twice a week, 6 weeks
Protocol: as §2, §3

SMILES: COc1ccc(CNc2nc(NCc3ccc(CN)cc3)nc(NN3CC(=O)NC3=O)n2)cc1 [WEHI-7326]
- IC50 (SW480; Homo sapiens, SW480, colon carcinoma, 72 h viability assay, CellTiterGlo, mean of 3 ± SEM, read-out: IC50 (inhibition of cellular proliferation)): 39.5 ± 4.1 nM
- Potency relative to myoseverin B (SW480; SW480): almost ten-fold
- Concentration inhibiting proliferation (SW480; SW480 colon cancer cell line in vitro): at or below micromolar concentration
- Tumor growth [1]: effective in reducing tumor growth
- IC50 (CEM dEpoB300): 6.51 ± 0.08 nM
- Median time to harvest (TTH) (134183 HGSOC PDX): lack of improvement
- Time to progressive disease (PD) (134183 HGSOC PDX): 53 days
- Tumor response (34931 HGSOC PDX): ineffective
